Measurements taken from US11447505B1, “Pyrrolo[2,3-b]pyridine compounds and their use in the treatment of cancer” (priority 2017, dated 2022).

Experiments:
[1] = molecular target: ROCK1 (Homo sapiens (Human), UniProt Q13464); settings: read-out: ROCK1 Average Ki; 1 μM ATP
Experimental: MRCKα, MRCKβ, ROCK1 and ROCK2 assays were performed using an IMAP fluorescence polarization assay format (Molecular Devices Inc.). […] Typically, dose response analyses were performed over concentration ranges from 0.005-100 μM. […] After 30 min incubation to allow binding reagent to bind phosphorylated peptide, fluorescence polarization was measured on a Tecan Saphire^2 plate reader at excitation (470 nm) and emission (530 nm) wavelengths.

[2] = molecular target: MRCKβ (Homo sapiens (Human), UniProt Q9Y5S2); experiment: MRCKβ kinase assay (IMAP fluorescence polarization); format: biochemical; settings: 1 μM ATP; read-out: MRCK-B Average Ki
Excerpt: MRCKα, MRCKβ, ROCK1 and ROCK2 Kinase Assays

ROCK1, sequence (Q13464 2-1354 limits assumed): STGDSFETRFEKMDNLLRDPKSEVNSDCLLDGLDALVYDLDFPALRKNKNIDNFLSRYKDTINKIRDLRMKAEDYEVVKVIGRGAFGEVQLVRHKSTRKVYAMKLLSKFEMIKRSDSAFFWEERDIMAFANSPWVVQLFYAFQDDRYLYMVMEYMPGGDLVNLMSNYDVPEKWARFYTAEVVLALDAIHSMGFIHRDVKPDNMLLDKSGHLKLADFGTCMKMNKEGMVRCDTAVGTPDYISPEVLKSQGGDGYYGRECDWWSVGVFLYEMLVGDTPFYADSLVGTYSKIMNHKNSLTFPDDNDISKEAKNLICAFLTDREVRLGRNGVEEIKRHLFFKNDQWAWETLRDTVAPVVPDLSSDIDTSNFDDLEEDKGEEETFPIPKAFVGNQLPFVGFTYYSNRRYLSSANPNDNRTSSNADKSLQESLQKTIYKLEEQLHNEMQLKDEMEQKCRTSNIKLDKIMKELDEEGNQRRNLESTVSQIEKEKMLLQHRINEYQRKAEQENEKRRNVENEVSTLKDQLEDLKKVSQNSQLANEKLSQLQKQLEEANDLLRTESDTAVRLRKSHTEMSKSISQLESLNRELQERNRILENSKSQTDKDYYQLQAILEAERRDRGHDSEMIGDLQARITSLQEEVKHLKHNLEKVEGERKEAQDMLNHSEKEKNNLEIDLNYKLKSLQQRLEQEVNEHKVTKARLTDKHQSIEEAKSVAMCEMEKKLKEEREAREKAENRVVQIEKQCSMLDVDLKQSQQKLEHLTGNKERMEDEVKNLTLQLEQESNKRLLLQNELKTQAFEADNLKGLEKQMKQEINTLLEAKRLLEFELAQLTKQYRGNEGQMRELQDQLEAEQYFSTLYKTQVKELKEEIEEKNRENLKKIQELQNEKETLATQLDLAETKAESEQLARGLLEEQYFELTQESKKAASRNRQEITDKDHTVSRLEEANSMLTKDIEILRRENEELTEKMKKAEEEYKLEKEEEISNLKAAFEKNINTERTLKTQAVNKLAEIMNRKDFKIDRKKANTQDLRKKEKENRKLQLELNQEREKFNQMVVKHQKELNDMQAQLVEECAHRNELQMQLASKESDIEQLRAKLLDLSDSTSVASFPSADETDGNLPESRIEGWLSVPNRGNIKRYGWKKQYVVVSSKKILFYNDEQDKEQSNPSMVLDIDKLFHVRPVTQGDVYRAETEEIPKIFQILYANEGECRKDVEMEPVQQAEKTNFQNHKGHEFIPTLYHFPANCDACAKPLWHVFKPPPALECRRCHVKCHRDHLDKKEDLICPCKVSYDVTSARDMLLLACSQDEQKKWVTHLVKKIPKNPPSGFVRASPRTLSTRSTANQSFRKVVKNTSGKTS

Row | Molecule | Ki [1] | Ki [2]
1 | 7-(3-pyridazin-4-yl-1H-pyrrolo[2,3-b]pyridin-4-yl)-2,7-diazaspiro[4.5]decane [Example E163] | 16.7 nM | 2.4 nM
2 | NC1CN(c2ccnc3[nH]cc(-c4ccncn4)c23)CCC1F (centres unmarked) [Example E42, 4-fluoro-1-(3-pyrimidin-4-yl-1H-pyrrolo[2,3-b]pyridin-4-yl)piperidin-3-amine] | 79.6 nM | 0.323 nM
3 | c1cc(-c2c[nH]c3nccc(N4CCCNCC4)c23)cnn1 [Example E43, 4-(1,4-diazepan-1-yl)-3-pyridazin-4-yl-1H-pyrrolo[2,3-b]pyridine] | 59.5 nM | 2.61 nM
4 | c1ncc(-c2c[nH]c3nccc(N4CCCNCC4)c23)cn1 [Example E44, 4-(1,4-diazepan-1-yl)-3-pyrimidin-5-yl-1H-pyrrolo[2,3-b]pyridine] | 461 nM | 4.5 nM
5 | N#Cc1c[nH]c2nccc(N3CCCCC3Cc3ccccc3)c12 (centres unmarked) [Example E106, 4-(2-benzyl-1-piperidyl)-1H-pyrrolo[2,3-b]pyridine-3-carbonitrile] | – | 805 nM
6 | c1ncc(-c2c[nH]c3nccc(N4CC[C@]5(CCCN5)C4)c23)cn1 [Example E123, 4-[(5R)-1,7-diazaspiro[4.4]nonan-7-yl]-3-pyrimidin-5-yl-1H-pyrrolo[2,3-b]pyridine] | 100000 nM | 9.88 nM
7 | c1ncc(-c2c[nH]c3nccc(N4CC[C@@]5(CCCN5)C4)c23)cn1 [Example E124, 4-[(5S)-1,7-diazaspiro[4.4]nonan-7-yl]-3-pyrimidin-5-yl-1H-pyrrolo[2,3-b]pyridine] | 76.9 nM | 0.947 nM
8 | c1ncc(-c2c[nH]c3nccc(N4CC[C@]5(CCCCN5)C4)c23)cn1 [Example E125, (5R)-2-(3-pyrimidin-5-yl-1H-pyrrolo[2,3-b]pyridin-4-yl)-2,6-diazaspiro[4.5]decane] | 424 nM | 31.3 nM
9 | c1cc(-c2c[nH]c3nccc(N4CC[C@]5(CCCCN5)C4)c23)ncn1 [Example E127, (5R)-2-(3-pyrimidin-4-yl-1H-pyrrolo[2,3-b]pyridin-4-yl)-2,6-diazaspiro[4.5]decane] | 175 nM | 11.6 nM
10 | Cc1cnc(-c2c[nH]c3nccc(N4CC[C@]5(CCCCN5)C4)c23)s1 [Example E130, 2-[4-[(5R)-2,6-diazaspiro[4.5]decan-2-yl]-1H-pyrrolo[2,3-b]pyridin-3-yl]-5-methyl-thiazole] | 100000 nM | 7.23 nM
11 | c1csc(-c2c[nH]c3nccc(N4CC[C@]5(CCCCN5)C4)c23)n1 [Example E132, 2-[4-[(5R)-2,6-diazaspiro[4.5]decan-2-yl]-1H-pyrrolo[2,3-b]pyridin-3-yl]thiazole] | 100000 nM | 4.11 nM
12 | c1csc(-c2c[nH]c3nccc(N4CC[C@]5(CCCN5)C4)c23)n1 [Example E135, 2-[4-[(5R)-1,7-diazaspiro[4.4]nonan-7-yl]-1H-pyrrolo[2,3-b]pyridin-3-yl]thiazole] | 100000 nM | 10.3 nM
13 | c1ccc(-c2c[nH]c3nccc(N4CCC5(CCCN5)C4)c23)nc1 (centres unmarked) [Example E137, 4-(1,7-diazaspiro[4.4]nonan-7-yl)-3-(2-pyridyl)-1H-pyrrolo[2,3-b]pyridine] | 100000 nM | 2.83 nM
14 | c1ccc(-c2c[nH]c3nccc(N4CCCC5(CCCCN5)C4)c23)nc1 (centres unmarked) [Example E138, 8-[3-(2-pyridyl)-1H-pyrrolo[2,3-b]pyridin-4-yl]-1,8-diazaspiro[5.5]undecane] | 319 nM | 0.0726 nM
15 | c1ccc(-c2c[nH]c3nccc(N4CCC[C@]5(CCCCN5)C4)c23)nc1 [Example E140, (6R)-8-[3-(2-pyridyl)-1H-pyrrolo[2,3-b]pyridin-4-yl]-1,8-diazaspiro[5.5]undecane] | 97.7 nM | 7.33 nM
16 | c1ccc(-c2c[nH]c3nccc(N4CCC5(CCCCN5)C4)c23)nc1 (centres unmarked) [Example E141, 2-[3-(2-pyridyl)-1H-pyrrolo[2,3-b]pyridin-4-yl]-2,6-diazaspiro[4.5]decane] | 109 nM | 0.549 nM
17 | Cc1cnc(-c2c[nH]c3nccc(N4CCCC5(CCCN5)C4)c23)s1 (centres unmarked) [Example E143, 2-[4-(1,9-diazaspiro[4.5]decan-9-yl)-1H-pyrrolo[2,3-b]pyridin-3-yl]-5-methyl-thiazole] | 100000 nM | 0.882 nM
18 | Cc1cnc(-c2c[nH]c3nccc(N4CCC5(CCCCN5)C4)c23)s1 (centres unmarked) [Example E144, 2-[4-(2,6-diazaspiro[4.5]decan-2-yl)-1H-pyrrolo[2,3-b]pyridin-3-yl]-5-methyl-thiazole] | 386 nM | 0.154 nM
19 | Cc1cnc(-c2c[nH]c3nccc(N4CCCC5(CCCCN5)C4)c23)s1 (centres unmarked) [Example E147, 2-[4-(1,8-diazaspiro[5.5]undecan-8-yl)-1H-pyrrolo[2,3-b]pyridin-3-yl]-5-methyl-thiazole] | 100000 nM | 0.0924 nM
20 | Cc1cnc(-c2c[nH]c3nccc(N4CCC[C@]5(CCCCN5)C4)c23)s1 [Example E148, 2-[4-[(6R)-1,8-diazaspiro[5.5]undecan-8-yl]-1H-pyrrolo[2,3-b]pyridin-3-yl]-5-methyl-thiazole] | 100000 nM | 4.02 nM

Row | Molecule | Ki [1] | Ki [2]
21 | c1csc(-c2c[nH]c3nccc(N4CCCC5(CCCCN5)C4)c23)n1 (centres unmarked) [Example E149, 2-[4-(1,8-diazaspiro[5.5]undecan-8-yl)-1H-pyrrolo[2,3-b]pyridin-3-yl]thiazole] | 304 nM | 0.0633 nM
22 | c1csc(-c2c[nH]c3nccc(N4CCC[C@]5(CCCCN5)C4)c23)n1 [Example E151, 2-[4-[(6R)-1,8-diazaspiro[5.5]undecan-8-yl]-1H-pyrrolo[2,3-b]pyridin-3-yl]thiazole] | 114 nM | 3.21 nM
23 | Cc1cnc(-c2c[nH]c3nccc(N4CCC5(CCN5)C4)c23)s1 (centres unmarked) [Example E152, 2-[4-(1,7-diazaspiro[3.4]octan-7-yl)-1H-pyrrolo[2,3-b]pyridin-3-yl]-5-methyl-thiazole] | 100000 nM | 4.65 nM
24 | Cc1cnc(-c2c[nH]c3nccc(N4CCCC5(CCN5)C4)c23)s1 (centres unmarked) [Example E153, 2-[4-(1,8-diazaspiro[3.5]nonan-8-yl)-1H-pyrrolo[2,3-b]pyridin-3-yl]-5-methyl-thiazole] | 100000 nM | 9.36 nM
25 | c1csc(-c2c[nH]c3nccc(N4CCC5(CCCN5)C4)c23)n1 (centres unmarked) [Example E154, 2-[4-(1,7-diazaspiro[4.4]nonan-7-yl)-1H-pyrrolo[2,3-b]pyridin-3-yl]thiazole] | 239 nM | 0.37 nM
26 | c1cc(-c2c[nH]c3nccc(N4CCCC5(CNC5)C4)c23)cnn1 [Example E156, 4-(2,6-diazaspiro[3.5]nonan-6-yl)-3-pyridazin-4-yl-1H-pyrrolo[2,3-b]pyridine] | 57.4 nM | 1.69 nM
27 | Cc1csc(-c2c[nH]c3nccc(N4CCCC5(CCCCN5)C4)c23)n1 (centres unmarked) [Example E158, 2-[4-(1,8-diazaspiro[5.5]undecan-8-yl)-1H-pyrrolo[2,3-b]pyridin-3-yl]-4-methyl-thiazole] | 100000 nM | 0.36 nM
28 | Cc1nccc(-c2c[nH]c3nccc(N4CCCC5(CCCCN5)C4)c23)n1 (centres unmarked) [Example E160, 8-[3-(2-methylpyrimidin-4-yl)-1H-pyrrolo[2,3-b]pyridin-4-yl]-1,8-diazaspiro[5.5]undecane] | 100000 nM | 2.76 nM
29 | c1cc(-c2c[nH]c3nccc(N4CCC5(CCCN5)C4)c23)cnn1 (centres unmarked) [Example E161, 4-(1,7-diazaspiro[4.4]nonan-7-yl)-3-pyridazin-4-yl-1H-pyrrolo[2,3-b]pyridine] | 34.1 nM | 0.933 nM
30 | c1cc(-c2c[nH]c3nccc(N4CCC5(CCCCN5)C4)c23)cnn1 (centres unmarked) [Example E162, 2-(3-pyridazin-4-yl-1H-pyrrolo[2,3-b]pyridin-4-yl)-2,6-diazaspiro[4.5]decane] | 16.9 nM | 0.219 nM
31 | c1cc(-c2c[nH]c3nccc(N4CCC5(CCNC5)C4)c23)cnn1 (centres unmarked) [Example E164, 4-(2,7-diazaspiro[4.4]nonan-2-yl)-3-pyridazin-4-yl-1H-pyrrolo[2,3-b]pyridine] | 0.448 nM | 1.12 nM
32 | N#Cc1c[nH]c2nccc(N3CCCC4(CCCCN4)C3)c12 (centres unmarked) [Example E165, 4-(1,8-diazaspiro[5.5]undecan-8-yl)-1H-pyrrolo[2,3-b]pyridine-3-carbonitrile] | 174 nM | 0.249 nM
33 | Cc1ncc(-c2c[nH]c3nccc(N4CCCC5(CCCCN5)C4)c23)cn1 (centres unmarked) [Example E166, 8-[3-(2-methylpyrimidin-5-yl)-1H-pyrrolo[2,3-b]pyridin-4-yl]-1,8-diazaspiro[5.5]undecane] | 100000 nM | 0.786 nM
34 | Cc1noc(C)c1-c1c[nH]c2nccc(N3CCCC4(CCCCN4)C3)c12 (centres unmarked) [Example E167, 4-[4-(1,8-diazaspiro[5.5]undecan-8-yl)-1H-pyrrolo[2,3-b]pyridin-3-yl]-3,5-dimethyl-isoxazole] | 100000 nM | 108 nM
35 | c1cc(-c2c[nH]c3nccc(N4CCC[C@]5(CCCCN5)C4)c23)cnn1 [Example E173, (6R)-8-(3-pyridazin-4-yl-1H-pyrrolo[2,3-b]pyridin-4-yl)-1,8-diazaspiro[5.5]undecane] | 294 nM | 1.18 nM
36 | N#Cc1c[nH]c2nccc(N3CCC4(CCCN4)C3)c12 (centres unmarked) [Example E185, 4-(1,7-diazaspiro[4.4]nonan-7-yl)-1H-pyrrolo[2,3-b]pyridine-3-carbonitrile] | 13.6 nM | 1.92 nM
37 | CN(C)C(=O)C1(N)CCN(c2ccnc3[nH]cc(-c4cncnc4)c23)CC1 [Example E198, 4-amino-N,N-dimethyl-1-(3-pyrimidin-5-yl-1H-pyrrolo[2,3-b]pyridin-4-yl)piperidine-4-carboxamide] | – | 42.9 nM
38 | N#Cc1c[nH]c2nccc(N3CCC[C@H]3C(=O)N3CCOCC3)c12 [Example E202, 4-[(2S)-2-(morpholine-4-carbonyl)pyrrolidin-1-yl]-1H-pyrrolo[2,3-b]pyridine-3-carbonitrile] | – | 992 nM
39 | N#Cc1c[nH]c2nccc(N3CCC[C@H]3C(=O)N3CCCCC3)c12 [Example E203, 4-[(2S)-2-(piperidine-1-carbonyl)pyrrolidin-1-yl]-1H-pyrrolo[2,3-b]pyridine-3-carbonitrile] | – | 804 nM
